From patent US7759101B2, “Ginsenoside glycosidases hydrolyzing ginsenoside sugar moieties and uses thereof” (priority 2000, dated 2010)

Tests used:
[1] = test system: ginsenoside glycosidase I; experiment: Hydrolysis of ginsenosides with Fraction 36 (ginsenoside glycosidase I); assay type: biochemical, Aspergillus niger; conditions: pH 5.0, 30° C.
Method: (§1) 10 ml of the enzyme solution obtained in 1.1 was subjected to a DEAE-Cellulose DE-52 column (Pharamcia, 1.5×6.7 cm) to absorb the enzyme protein. The column was then eluted with a NaCl gradient (0.06, 0.12, 0.18, 0.24, 0.3, 0.4, 0.5 and 0.6M).
Fractions 36 and 54 from the DEAE-Cellulose column appeared as one dot on a SDS-polyacrylamide gel, representing the purified enzymes.
Fraction 36 which was eluted with 0.12 M NaCl from the DEAE-Cellulose column was lyophilized and appeared as a single dot with a molecular weight of 51,000 Daltons when running on a SDS-polyacrylamide gel.
(§2) To observe the differences between the ginsenoside glycosidases of the invention and known exo-cellulases, the ginsenoside glycosidases of the invention were compared with cellulose β-glucosidase (E.C. 3.2.1.21) in two reactions with 0.5% ginsenosides Rb1 or Rd as substrate.

[2] = test system: ginsenoside glycosidase II; experiment: Hydrolysis of ginsenosides with ginsenoside glycosidase II (Fraction 54); assay type: biochemical, Aspergillus niger; conditions: substrate 0.5%, pH 5.0, 30° C., 18 hours
Method: as §1
Fraction 54 which was eluted with 0.18 M NaCl from the DEAE-Cellulose column was lyophilized and appeared as a single dot when running on a SDS-polyacrylamide gel with a molecular weight of 90,000 Daltons. Therefore, it represented a purified enzyme and designated as ginsenoside glycosidase II.
as §2

[3] = test system: Almond cellulose β-glucosidase(EC 3.2.1.21); experiment: Comparison: hydrolysis of ginsenosides with almond cellulose β-glucosidase; assay type: biochemical; conditions: substrate 0.5%, pH 5.0, 30° C., 18 hours
Excerpt: as §2

[4] = test system: Cellobiose-producing enzyme from Clostridium; experiment: Comparison: hydrolysis of ginsenosides with cellobiose-producing enzyme; assay type: biochemical, Clostridium thermocopiriae; conditions: substrate 0.5%, pH 5.0, 30° C., 18 hours
Excerpt: as §2
An exo-cellulase from Clostridium thermocopiriae (cellobiose-producing enzyme) cleaves cellodextrin to give cellobiose, but cannot hydrolyze diglucosidic bond at C-3 of ginsenoside Rd. So it is completely different from ginsenoside glycosidase III. Therefore, the ginsenoside glycosidases of the invention are enzymes different from known cellulose β-glucosidases and cellobiose-producing enzymes.

[5] = test system: ginsenoside glycosidase I from ginseng plants; experiment: Hydrolysis of ginsenosides with fraction 52 (ginsenoside glycosidase I) from ginseng plant; assay type: biochemical; conditions: Fraction 52; substrate 0.5%; 50° C., pH 5.0, 18 hours
Method: (§3) 200 g of fresh ginseng root was cut into pieces and added to 600 ml of 0.02 M acetate buffer pH 5. Supernatant was obtained by filtration after the mixture stand at 40° C. for 2 hours. To the supernatant (NH4)2SO4 was added gradually until 70% saturation and the mixture stand overnight at 4° C. Then protein pellets were collected by centrifugation and redissolved in 15 ml of distilled water. The solution was dialyzed against 0.02 M Tris-HCl pH 7.4. Insolubles were removed by centrifugation and the volume of the supernatant was adjusted to 20 ml.
(§4) 5 ml of the enzyme solution was subjected to a DEAE-Cellulose DE-25 column (Whatman, 1.4×6.7 cm). The column was eluted with a KCl gradient (0.06, 0.12, 0.18 and 0.24 M) in 0.02 M Tris-HCl pH 7.4. After elution, each fraction was tested for the activity of hydrolyzing ginsenosides. […] Fraction 52 can also hydrolyze the glucosidic bond at the twentieth carbon atom of Rb and Rc to give ginsenoside F2.

[6] = test system: ginsenoside glycosidases from wheat bran; experiment: Hydrolysis of ginsenosides with ginsenoside glycosidases from wheat bran; assay type: biochemical; conditions: 10 ml of 1% ginsenoside substrate, 40° C., 20 hours
Method: 500 g of wheat bran was added to 2500 ml of 0.02 M acetate buffer pH 5 and extracted at 40° C. for 2 hours. 2000 ml of supernatant were obtained by filtration to which (NH4)2SO4 was added gradually with stirring until 70% saturation. The mixture stand at 4° C. overnight. Protein pellets were collected by centrifugation and redissolved in 80 ml of distilled water and dialyzed against 0.02 M acetate buffer pH 5.0. Insolubles were removed by centrifugation and the supernatant was adjusted to a volume of 200 ml to obtain the crude enzyme solution.
10 ml of the enzyme solution was allowed to react with 10 ml of 1% ginsenoside substrate at 40° C. for 20 hours.

[7] = test system: Enzymes from Plant Seeds—Almond; experiment: Hydrolysis of Rb1 with enzymes from almond; assay type: biochemical; conditions: 1% Rb1 solution, pH 5, 20% ethanol, 50° C., 14 hours
Method: 100 g of almond was ground and added to 300 ml of 0.01 M acetate buffer pH 5 for extraction under room temperature for two hours. The mixture was centrifuged. (NH4)2SO4 was added to the supernatant to 60% saturation to precipitate the enzymes. The mixture was stored at 4° C. overnight. Precipitates were collected by centrifugation and dialyzed against 0.01 M acetate buffer pH 5. Impurities were removed and 30 ml of enzyme solution was obtained. 10 ml of the enzyme solution was allowed to react with 10 ml of 1% Rb1 solution (in 0.01 M acetate buffer pH 5 containing 20% ethanol) at 50° C. for 14 hours.

[8] = test system: ginsenoside glycosidase III; experiment: Hydrolysis of ginsenoside Rd with ginsenoside glycosidase III (Fraction 18); assay type: biochemical, Aspergillus niger; conditions: substrate 0.5%, pH 5.0, 30° C., 18 hours
Method: Ginsenoside glycosidase II was purified from the crude enzyme solution obtained in 1.1 by HPLC. Separation column: Bio-Scale Q (BioRad), 2 ml/tube. 1 ml of the crude enzyme solution was loaded on the column, and eluted with solvent A (25 mM Tris-HCl buffer pH 7.4) and solvent B (0.5M NaCl in 20 mM Tris-HCl buffer pH 7.4). Fraction 18 appeared as a single dot when running on a SDS-polyacrylamide gel and thus represented a purified enzyme. The enzyme was designated as ginsenoside glycosidase III. This enzyme can hydrolyze the diglucosyl groups at C-3 of aglycone, converting Rd and Rg3 to C-K and aglycone.
as §2

[9] = test system: ginsenoside glycosidase III from ginseng plant; experiment: Hydrolysis of Rd with fraction 37 (ginsenoside glycosidase III) from ginseng plant; assay type: biochemical; conditions: Fraction 37; substrate 0.5%; 50° C., pH 5.0, 18 hours
Method: as §3, §4

[10] = Fraction 36, substrates Rb1, Rb2, Rc, Rd 0.5%, Rg3, F2, Rh2, C—K, Rg2 0.05%
[11] = Table 8, ginsenoside glycosidase I, substrate 0.5%, 18 hours

| Structure (SMILES) | Percentage of C—K in the reaction product [1, 10] [%] | Percentage of F2 in the reaction product [1, 10] [%] | Percentage of aglycone in the reaction product [1, 10] [%] | Percentage of C—K in the reaction product [1, 11] [%] | Percentage of F2 in the reaction product [1, 11] [%] | Percentage of aglycone in the reaction product [1, 11] [%] | Percentage of Rd in the reaction product [2] [%] | Percentage of Rg3 in the reaction product [2] [%] | Percentage of Rb1 in the reaction product [3] [%] | Percentage of Rb1 in the reaction product [4] [%] | Percentage of F2 in the reaction product [5] [%] | Percentage of Rd in the reaction product [5] [%] | Percentage of F2 in the reaction product [6] [%] | Percentage of Rd in the reaction product [6] [%] | also measured |
| --- | --- | --- | --- | --- | --- | --- | --- | --- | --- | --- | --- | --- | --- | --- | --- |
| CC(C)=CCC[C@](C)(O[C@@H]1O[C@H](CO[C@@H]2O[C@H](CO)[C@@H](O)[C@H](O)[C@H]2O)[C@@H](O)[C@H](O)[C@H]1O)[C@H]1CC[C@]2(C)[C@@H]1[C@H](O)C[C@@H]1[C@@]3(C)CC[C@H](O[C@@H]4O[C@H](CO)[C@@H](O)[C@H](O)[C@H]4O[C@@H]4O[C@H](CO)[C@@H](O)[C@H](O)[C@H]4O)C(C)(C)[C@@H]3CC[C@]12C [Rb1, ginsenoside Rb1] | 49 | 38 | 2 | 49 | 38 | 2 | 90 | 5 | 80 | 100 | 70 | 30 | 55 | 40 | Percentage of Rd in the reaction product [1, 10]: 8%; Percentage of Rh2 in the reaction product [1, 10]: 1%; Percentage of Rd in the reaction product [1, 11]: 8%; Percentage of Rh2 in the reaction product [1, 11]: 1%; Percentage of Rd in the reaction product [3]: 20%; Rb1 converted to ginsenosides with lower sugar contents [7]: 40% |
| CC(C)=CCC[C@](C)(O[C@@H]1O[C@H](CO)[C@@H](O)[C@H](O)[C@H]1O)[C@H]1CC[C@]2(C)[C@@H]1[C@H](O)C[C@@H]1[C@@]3(C)CC[C@H](O[C@@H]4O[C@H](CO)[C@@H](O)[C@H](O)[C@H]4O[C@@H]4O[C@H](CO)[C@@H](O)[C@H](O)[C@H]4O)C(C)(C)[C@@H]3CC[C@]12C [Rd, ginsenoside Rd] | 25 | 50 | 5 | 25 | 50 | 5 | 90 | 5 | 100 | 100 | 40 | 60 | 40 | 60 | Percentage of C—K in the reaction product [8]: 36%; Percentage of Rd in the reaction product [8]: 61%; Percentage of aglycone in the reaction product [8]: 3%; Percentage of C—K in the reaction product [9]: 55%; Percentage of Rd in the reaction product [9]: 45% |
